How the values were obtained:
[1] = test system: Baumanii; test: MIC by Agar Doubling Dilution Method, clinical isolates; assay type: cell-based; conditions: Baumanii clinical strains
Procedure: (§1) (3) Culture Solution • MH Broth Culture Solution: 25 g was added into […] distilled water, heat to dissolve, subpackaged, autoclaved at 116° C. for 20 minutes, and MH Solid Culture Medium, 36 g was added into 1000 ml distilled water, autoclaved at 116° C. for 20 minutes, used for drug sensitive test of Gram-positive and negative aerobic bacteria. • Blood culture solution for Enterococcus faecalis, which was prepared by adding defibration rabbit blood into the MH culture solution by 5-10% and cultured at 37° C. in 5% CO2 for 24 hours. 2. Experimental Methods (1) The Measurement of Minimum Inhibitory Concentration (MIC) • The Minimum Inhibitory Concentration (MIC) of PMC-SA1 was measured by Agar Doubling Dilution Method. The bacterium was inoculated on the surface of agar plate containing different concentration of drugs by multipoint inoculate instrument (Deneley A400). The bacterial content per point was 10^5 CFU/ml. After incubated at 37° C. for 18-24 hours, the result can be observed. The least concentration of drugs in plate culture solution without bacterium growing was Minimum Inhibitory Concentration (MIC) of the drug to the said bacteria. 3. Results

[2] = test system: E. coli; test: as above; assay type: cell-based; conditions: E. coli clinical strains
Procedure: as §1

[3] = test system: Staphylococcus aureus (MRSA); test: as above; assay type: cell-based; conditions: MRSA clinical strains
Procedure: as §1

[4] = test system: Staphylococcus aureus (MSSA); test: as above; assay type: cell-based; conditions: MSSA clinical strains
Procedure: as §1

[5] = test system: Staphylococcus epidermidis (MRSE); test: as above; assay type: cell-based; conditions: MRSE clinical strains
Procedure: as §1

[6] = test system: Staphylococcus epidermidis (MSSE strain); test: as above; assay type: cell-based; conditions: MSSE clinical strains
Procedure: as §1

[7] = test system: Enterococcus; test: as above; assay type: cell-based, Enterococcus faecalis; conditions: Enterococcus clinical strains
Procedure: as §1

[8] = test system: Enterococcus ATCC 700802; test: MIC against the infecting strain (Table 2); assay type: cell-based, Enterococcus faecalis; conditions: ATCC700802
Procedure: as §1

[9] = test system: E. coli 02-1-65; test: MIC against the infecting strain (Table 2); assay type: cell-based; conditions: E. coli 02-1-65
Procedure: as §1

[10] = test system: Staphylococcus aureus ATCC 29213; test: MIC against the infecting strain (Table 2); assay type: cell-based; conditions: ATCC29213
Procedure: as §1

[11] = test system: Staphylococcus aureus MRSA BAA-42; test: MIC against the infecting strain (Table 2); assay type: cell-based; conditions: Staphylococcus aureus MRSA BAA-42
Procedure: as §1

[12] = test system: E. coli 02-1-65; test: Protection test in vivo (intravenous injection) of infected mice; parameters: species or system Kungming mice; conditions: mice, infected with 3.8 × 10^5 cfu/ml i.p., drug once intravenous
Procedure: (§2) The drugs used in this embodiment were same with that used in embodiment 4.
(§3) The above drugs were dissolved and diluted by sterilized water, and the injection concentrations of each drug were 10 mg/kg, 5 mg/kg and 2.5 mg/kg.
(§4) After given intraperitoneal injection of fatal dose of above-mentioned bacteria, the mice of each drug experimental group respectively were given once intravenous injection of the drug by 10 mg, 5 mg, 2.5 mg/kg. The results were observed per 24 hours for 7-14 days. The positive result is mice's death.

[13] = test system: Enterococcus ATCC 700802; test: as above; parameters: species or system Kungming mice; conditions: mice, infected with 7.0 × 10^6 cfu/ml i.p., drug once intravenous
Procedure: as §2, §3, §4

[14] = test system: Staphylococcus aureus ATCC 29213; test: as above; parameters: species or system Kungming mice; conditions: mice, infected with 4.6 × 10^5 cfu/ml i.p., drug once intravenous
Procedure: as §2, §3, §4

[15] = test system: Staphylococcus aureus MRSA BAA-42; test: as above; parameters: species or system Kungming mice; conditions: mice, infected with 6.5 × 10^5 cfu/ml i.p., drug once intravenous
Procedure: as §2, §3, §4

[16] = test system: methicillin-resistant Staphylococcus aureus (ATCC BAA-42); test: Transmission electron microscope observation of bactericidal effect; assay type: cell-based; conditions: oxacillin 500 μg/ml, […]
Procedure: Transmission Electron Microscope Observations of the Bactericidal Effect of the Novel Antibiotic PMC-SA1 on Methicillin-Resistant Staphylococcus aureus (ATCC BAA-42) (Dyed by 1% Phospho-Wolframic Acid, Magnified by 25,000 Fold)
Culture solution: 1% tryptone, 1% NaCl, 0.5% yeast extract, 0.5% glucose, 0.1% K2HPO4.
Con: control group, the bacterium was added to the above culture solution and proper amount of 0.3 M NaCl+50 mM boric acid buffer solution, 200 rpm, grew at 37° C. for 2 hours, and the bacterial appearance was still regular;
PMC: the bacterium was added to the above culture solution with 10 μg/ml PMC-SA1 for 0.5 hours.

[17] = test system: methicillin-resistant Staphylococcus aureus ATCC BAA-42; test: Bacteria growth curve (A595 nm), comparison of the novel antibiotics; assay type: cell-based; conditions: drug 5 μg/ml, 37° C., A595 nm per hour
Procedure: The following experiment was set for comparing bacteriostasis effects of 6 kinds of the novel antibiotics. The experimental bacteriaum was United States Standard Strain methicillin-resistant Staphylococcus aureus ATCC BAA-42. 5 microliter of bacteria solution (10^6 CFU/ml level bacterium amount) was added into 10 ml culture solution containing 1% peptone, 1% NaCl, 0.5% yeast extract, 0.5% glucose and 0.1% K2HPO4, total of 8 groups were prepared. The first group as control was added 0.3 M NaCl+50 mM boric acid buffer fluid by the same volume as that of antibiosis polypeptide liquid added in any experimental groups, the second group was added penicillin G sodium by 5 μg/ml, PMC-SA1, PMC-SA2, PMC-SA3, PMC-SA4, PMC-SE and PMC-PA were added in the other experimental groups with preservative fluid being 0.3 M NaCl+50 mM boric acid buffer fluid by 5 ug/ml.
(§5) The solution of above groups was put into 100 ml conical flask, 200 rpm, grew at 37° C. 100 μl was sampled per hour, and added onto 96-pore ELISA plate and measured bacteria grown cloudiness by spectrophotometer (A595 nm) color comparison. The bacteria growth curve was drawn up to compare the bacteriostasis efficacy of antibiosis polypeptide.

[18] = test system: Pseudomonas aeruginosa Standard Strain (ATCC 27853); test: Bacteria growth curve (A595 nm cloudiness), Pseudomonas aeruginosa; assay type: cell-based; conditions: drug 5 μg/ml, 37° C., A595 nm per hour
Procedure: The experimental bacterium was Pseudomonas aeruginosa Standard Strain (ATCC 27853) purchased from the Center for General Microorganism of the Administration (CGMCC). 5 microliter bacteria solution (10^6 CFU/ml level bacterium amount) was added into 10 ml MH culture solution. Seven groups are prepared. 0.3 M NaCl+50 mM boric acid buffer fluid which amount was identical to amount of antibiosis polypeptide liquid in the experimental group was added as control in the first group, 5 μg/ml wild-type colicin Ia was added in the second group, 5 μg/ml PMC-SA1 was added in the third group, and 5 μg/ml PMC-PA was added in the fourth group.
as §5, with “Liquid in the” for “The solution of”, “96-hole Elisa Plate to measure” for “96-pore ELISA plate and measured”

[19] = test system: Multiple-drug resistance Pseudomonas aeruginosa (clinical separated strain 13280); test: In vivo protection of mice infected by multiple-drug resistance Pseudomonas aeruginosa; parameters: species or system Kungming mice; conditions: 5 mg/kg intravenous, fatal dose i.p.
Text: (1) Drugs • PMC-PA, piperacillin, amikacin, ceftazidime, levofloxacin.
Multiple-drug resistance Pseudomonas aeruginosa (clinical separated strain 13280, isolated by laboratory bacteria room of West China Hospital)
Kungming mice (n=60), half male and half female, weighing 15-20 g were given intraperitoneal injection of multiple-drug resistance Pseudomonas aeruginosa, therein PMC-PA, piperacillin, amikacin, ceftazidime and levofloxacin experimental group were set respectively as 10 mice per group, while the control group was set as 10 mice per group. After given intraperitoneal injection of fatal dose of the bacterium, the mice in drug experimental groups respectively were given an intravenous injection of one kind of above drugs, the results were observed per 24 hours for continuous 10 days. The positive result was mouse's death.

CC1(C)S[C@@H]2[C@H](NC(=O)[C@H](N)c3ccccc3)C(=O)N2[C@H]1C(=O)[O-].[Na+] [Ampicillin, Ampicillin Sodium]
MIC50 [1]: >128 µg/mL | MIC90 [1]: >128 µg/mL | MIC50 [2]: >128 µg/mL | MIC90 [2]: >128 µg/mL | MIC50 [3]: 16 µg/mL | MIC90 [3]: 32 µg/mL | Scope of MIC [3]: 0.06 to 64 µg/mL | MIC50 [4]: 0.25 µg/mL | MIC90 [4]: 1 µg/mL | Scope of MIC [4]: <0.015-0.025 ^ mg/L | MIC50 [5]: 16 µg/mL | MIC90 [5]: 64 µg/mL | Scope of MIC [5]: 0.06 to 64 µg/mL | MIC50 [6]: 0.03 µg/mL | MIC90 [6]: 0.25 µg/mL | MIC50 [7]: 0.5 µg/mL | MIC90 [7]: 16 µg/mL | Scope of MIC [7]: 0.25 to 16 µg/mL | MIC [8]: 2.5 µg/mL | MIC [9]: >128 µg/mL | MIC [10]: 1.5 µg/mL | MIC [11]: 16 µg/mL | ED50 [12]: >32 mg/kg | ED50 [13]: 3.00 mg/kg | ED50 [14]: 14.05 mg/kg | ED50 [15]: 25.41 mg/kg

Cc1onc(-c2ccccc2)c1C(=O)N[C@@H]1C(=O)N2[C@@H]1SC(C)(C)[C@@H]2C(=O)[O-].[Na+] [Oxacillin, Oxacillin Sodium]
bactericidal effect, bacterial appearance under transmission electron microscope [16]: the colour as well as appearance of the bacterium had changed, but the thallus was still integrated | bactericidal effect, bacterial appearance under transmission electron microscope ([16]; listed as oxacillin): the appearance of bacterium had changed, but thallus were still integrative | MIC50 [4]: 0.125 µg/mL | MIC90 [4]: 0.125 µg/mL | Scope of MIC [4]: <0.015-0.25 ^ mg/L | MIC50 [5]: 64 µg/mL | MIC50 [6]: 0.03 µg/mL | MIC90 [6]: 0.125 µg/mL | Scope of MIC [6]: <0.125-0.25 ^ mg/L | MIC50 [7]: 16 µg/mL | bacteriostasis effect on growth of methicillin-resistant Staphylococcus aureus (bacteria growth curve) [17]: can hardly be restrained

B1: PMC-PA: Staphylococcus aureus pheromone AgrD I connected to N-terminus of allosteric colicin Ia′; SEQ ID NO. 23; plasmid pBHC-PA (protein)
chain: YSTCDFIMSDPVRITNPAAESLGYDSDGREIMGVDIYLNPPRVDVFKGTPPAWSSFGNKTIWGGNEWVDDSPTRSDIEKRDKEITAYKNTLSAQQKENENKRTEAGKRLSAAIAAREKDENTLKTLRAGNADAADITRQEFRLLQAELREYGFRTEIAGYDALRLHTESRMLFADADSLRISPREARSLIEQAEKRQKDAQNADKKAADMLAEYERRKGILDTRLSELEKNGGAALAVLDAQQARLLGQQTRNDRAISEARNKLSSVTESLNTARNALTRAEQQLTQQKNTPDGKTIVSPEKFPGRSSTNHSIVVSGDPRFAGTIKITTSAVIDNRANLNYLLSHSGLDYKRNILNDRNPVVTEDVEGDKKIYNAEVAEWDKLRQRLLDARNKITSAESAVNSARNNLSARTNEQKHANDALNALLKEKENIRNQLSGINQKIAEEKRKQDELKATKDAINFTTEFLKSVSEKYGAKAEQLAREMAGQAKGKKIRNVEEALKTYEKYRADINKKINAKDRAAIAAALESVKLSDISSNLNRFSRGLGYAGKFTSLADWITEFGKAVRTENWRPLFVKTETIIAGNAATALVALVFSILTGSALGIIGYGLLMAVTGALIDESLVEKANKFWGI
modifications: The peptide of PMC-SA
notes: Staphylococcus aureus pheromone AgrD I connected to N-terminus of allosteric colicin Ia′; 23; plasmid pBHC-PA
bacteriostasis effect on growth of methicillin-resistant Staphylococcus aureus (bacteria growth curve) [17]: the worst | growth of Pseudomonas aeruginosa (bacteria growth curve) [18]: completely restrained | growth of Pseudomonas aeruginosa (bacteria growth curve) ([18]; listed as SEQ ID NO. 23): has antibacterial effect on Pseudomonas aeruginosa | survival rate of mice in 10 days [19]: 100%

B2: wild-type colicin Ia: wild-type bacterial toxin colicin Ia secreted by E. coli (protein, UniProt P06716 1-626, looked up)
Colicin-Ia: MSDPVRITNPGAESLGYDSDGHEIMAVDIYVNPPRVDVFHGTPPAWSSFGNKTIWGGNEWVDDSPTRSDIEKRDKEITAYKNTLSAQQKENENKRTEAGKRLSAAIAAREKDENTLKTLRAGNADAADITRQEFRLLQAELREYGFRTEIAGYDALRLHTESRMLFADADSLRISPREARSLIEQAEKRQKDAQNADKKAADMLAEYERRKGILDTRLSELEKNGGAALAVLDAQQARLLGQQTRNDRAISEARNKLSSVTESLNTARNALTRAEQQLTQQKNTPDGKTIVSPEKFPGRSSTNHSIVVSGDPRFAGTIKITTSAVIDNRANLNYLLSHSGLDYKRNILNDRNPVVTEDVEGDKKIYNAEVAEWDKLRQRLLDARNKITSAESAVNSARNNLSARTNEQKHANDALNALLKEKENIRNQLSGINQKIAEEKRKQDELKATKDAINFTTEFLKSVSEKYGAKAEQLAREMAGQAKGKKIRNVEEALKTYEKYRADINKKINAKDRAAIAAALESVKLSDISSNLNRFSRGLGYAGKFTSLADWITEFGKAVRTENWRPLFVKTETIIAGNAATALVALVFSILTGSALGIIGYGLLMAVTGALIDESLVEKANKFWGI
growth of Pseudomonas aeruginosa (bacteria growth curve) [18]: can not be effectively restrained
